Key:
[1] = test system: Towne strain HCMV; assay: HCMV titer reduction assay in HEL fibroblasts; type: cell-based, Human Cytomegalovirus; conditions: HEL fibroblasts infected with HCMV, supernatant day 6 postinfection, plaque assay
Protocol: Cell culture studies are performed to establish activity of DIM-related indoles alone and in combination with GFR's as inhibitors of HCMV replication in an in vitro model relevant to human infection.
Cell culture and viral infection. Human embryonic lung (HEL) fibroblasts are cultured in Eagle's minimal essential media (EMEM) (Gibco, BRL) supplemented with 10% fetal bovine serum (FBS) plus antibiotics.
Towne strain HCMV (passages 36 to 40) is propagated in HEL fibroblasts as previously described (Kowalik et al., 1993, Proc. Natl. Acad. Sci. USA 90:1107-1111).
For infection, cells are grown to confluence and then are serum starved for 48 h in minimal essential media (MEM) plus antibiotics. Cells are infected with HCMV that had been purified through a sucrose cushion to eliminate cytokines and growth factor contamination. Seeding of cells using a multiplicity of infection of 2-5 PFU per cell is used.
At the indicated time after infection, cells are washed once and then are maintained in MEM plus antibiotics until they are harvested. Cells are pretreated for 1 h with the listed compound or combinations of compounds prior to infection. […]
Titer reduction assay. The levels of active virus during the culture period are determined using a Titer Reduction Assay. […] HCMV plaque numbers are scored under an inverted microscope.

[2] = test system: TRAMP-C2 prostate cancer cells; type: in vivo; conditions: C57BL/6 mice, gavage once daily 5 days per week, 4 weeks
Protocol: METHODS: TRAMP-C2 cells, a mouse PC cell line are obtained from the American Type Culture Collection (Rockville, Md.). Six week old male C57BL/6 mice are purchased from Harlan Laboratories (Harlan, USA). TRAMP-C2 cells are suspended in media and aliquots are injected into the flank of male C57BL/6 mice using a 27 gauge needle. Two weeks after tumor transplantation when tumors appear, mice are divided in six groups treated as indicated:
Animals are dosed by gavage once daily, 5 days per week. Tumor volumes are measured weekly for 4 weeks following transplantation using calipers. Later, the tumors are removed, their final weights and volumes are measured. […] Tumor volumes in mm^2 are determined during the study using the formula π/6×larger diameter×(smaller diameter)^2. The data are expressed as the increase or decrease in tumor volume in mm^3. Histological studies are performed to assess the contribution of apotosis promotion in the reduction of tumor volume in treated groups.

SMILES	viral titers [1]	tumor growth (tumor volumes compared to control group) [2]
c1ccc2c(Cc3c[nH]c4ccccc34)c[nH]c2c1 [Diindolylmethane, 3,3′-diindolylmethane]	significant decrease	inhibition of tumor growth
COc1cc2ncnc(Nc3ccc(F)c(Cl)c3)c2cc1OCCCN1CCOCC1 [Gefitinib, N-(3-chloro-4-fluorophenyl)-7-methoxy-6-(3-morpholinopropoxy)quinazolin-4-amine, reference compound]		inhibition of tumor growth

Source: patent publication US20060111423A1, “Use of diindolylmethane-related indoles and growth factor receptor inhibitors for the treatment of human cytomegalovirus-associated disease” (priority 2004, published 2006)
